The assay concerns the target T1, human HCN1 (Homo sapiens, UniProt O60741).
T1 construct: expressed in transfected cells; host or cells: HEK-293H
T1 sequence (O60741 1-890): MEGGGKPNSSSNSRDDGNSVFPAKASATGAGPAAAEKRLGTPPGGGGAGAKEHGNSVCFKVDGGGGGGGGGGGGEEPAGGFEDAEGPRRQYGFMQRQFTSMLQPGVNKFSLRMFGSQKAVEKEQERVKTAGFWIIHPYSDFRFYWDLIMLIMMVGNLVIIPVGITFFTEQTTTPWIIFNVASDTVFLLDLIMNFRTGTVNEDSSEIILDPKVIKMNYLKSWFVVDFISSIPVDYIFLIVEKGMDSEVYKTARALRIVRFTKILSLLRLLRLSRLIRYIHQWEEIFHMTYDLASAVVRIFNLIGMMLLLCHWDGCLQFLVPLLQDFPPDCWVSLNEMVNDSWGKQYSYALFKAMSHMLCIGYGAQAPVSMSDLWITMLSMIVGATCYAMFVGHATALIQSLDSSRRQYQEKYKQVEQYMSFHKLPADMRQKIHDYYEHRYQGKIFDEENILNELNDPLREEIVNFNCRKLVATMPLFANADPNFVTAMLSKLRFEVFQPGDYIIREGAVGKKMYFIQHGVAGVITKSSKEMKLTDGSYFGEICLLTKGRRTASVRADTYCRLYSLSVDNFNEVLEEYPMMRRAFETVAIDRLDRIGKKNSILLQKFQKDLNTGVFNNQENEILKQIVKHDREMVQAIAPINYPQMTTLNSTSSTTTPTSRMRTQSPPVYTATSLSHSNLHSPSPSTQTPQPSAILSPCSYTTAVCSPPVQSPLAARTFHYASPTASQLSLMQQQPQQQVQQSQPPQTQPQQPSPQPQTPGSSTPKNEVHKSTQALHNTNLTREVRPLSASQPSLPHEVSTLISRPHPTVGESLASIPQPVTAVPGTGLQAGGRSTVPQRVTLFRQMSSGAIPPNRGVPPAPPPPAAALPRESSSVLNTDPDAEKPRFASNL
The experiment in a line: MPSD FLIPR 384 well hyperpolarization assay, HCN1. It counts as cell-based. How it is done: HEK-293H cells stably expressing human HCN1, HCN2, or HCN3 channel were plated at a density of 45-50×10^3 cells/well in a 384 well format fluorescent imaging plate reader system (FLIPR®^384) in 50 μl/well of DMEM supplemented with 10% fetal bovine serum and penicillin/streptomycin. The cells were cultured for 24-48 hours in a 5% CO2/air humidified incubator at 37° C.
The cells seeded on the microtiter plates were incubated in 50 μl HBSS, as described in Example 2. Optionally, HBSS was supplemented with about 25 mM of KCl to further enhance the assay window. A membrane potential sensitive dye (MPSD), Component-A of the Membrane Potential Assay Kit, (Product No. R-8034, Molecular Devices Corporation of Sunnyvale, Calif.) was dissolved in the HBSS solution (1 vial/0.5 L). The excess saline was removed to fit the residual volume of about 1 μl to 5 μl. […]
Membrane potentials were measured at room temperature (21°-23°) for each of the above-described saline conditions using a fluorescent imaging plate reader system (FLIPR®, Molecular Devices of Sunnyvale, Calif.). […]
HEK-293H cells stably expressing human HCN1 channel were plated as described in Example 3 above. […] The change in fluorescence (ΔF) was measured for a total assay time of about 180 seconds. […]

Turning to `CCN(c1ccccc1)c1cc(=NC)n(C)c(C)n1.Cl` [ZD7288], where the note is “30 μM ZD7288, HEK-293H HCN1, about 180 seconds”, the “blockade of hyperpolarization (change in fluorescence)” value was “effectively blocked hyperpolarization”. Also, the “blockade of hyperpolarization (change in fluorescence), FIG. 5 legend” value (50 μM ZD7288, cells expressing HCN1) was “effectively blocked hyperpolarization”.

The values above are taken from US20090029366A1 (priority 2007, published 2009).
